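Compound exposure: 48 hours, 5 concentrations, 96-well plates. GI50 = concentration required for 50% inhibition of growth. TGI: concentration producing complete growth inhibition.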
Columns and labels:
Assay in all cases: inhibition of tumour cell growth, NCI panel, 48 h
T-47D breast = test system: T-47D breast
HCC-2998 colon = test system: HCC-2998 colon
PC-3 prostate = test system: PC-3 prostate
SNB-75 CNS = test system: SNB-75 CNS
NCI-H460 lung = test system: NCI-H460 lung
COLO 205 colon = test system: COLO 205 colon
A498 renal = test system: A498 renal
SNB-19 CNS = test system: SNB-19 CNS
IGROV1 ovarian = test system: IGROV1 ovarian
HS 578T breast = test system: HS 578T breast
KM12 colon = test system: KM12 colon
OVCAR-5 ovarian = test system: OVCAR-5 ovarian
RXF 393 renal = test system: RXF 393 renal
OVCAR-3 ovarian = test system: OVCAR-3 ovarian
SF-295 CNS = test system: SF-295 CNS
HOP-92 NSCLC = test system: HOP-92 NSCLC
M14 melanoma = test system: M14 melanoma
HT29 colon = test system: HT29 colon
CAKI-1 renal = test system: CAKI-1 renal
SF-539 CNS = test system: SF-539 CNS
HCT-116 colon = test system: HCT-116 colon
UO-31 renal = test system: UO-31 renal
LOX IMVI melanoma = test system: LOX IMVI melanoma
HCT-15 colon = test system: HCT-15 colon
NCI-H226 lung = test system: NCI-H226 lung
NCI-H23 lung = test system: NCI-H23 lung
SN12C renal = test system: SN12C renal
SF-268 CNS = test system: SF-268 CNS
BT-549 breast = test system: BT-549 breast
MDA-MB-468 breast = test system: MDA-MB-468 breast
MCF7 breast = test system: MCF7 breast
786-0 renal = test system: 786-0 renal
ACHN renal = test system: ACHN renal
HL-60(TB) leukemia = test system: HL-60(TB) leukemia
MALME-3M melanoma = test system: MALME-3M melanoma
DU-145 prostate = test system: DU-145 prostate
UACC-62 melanoma = test system: UACC-62 melanoma
MDA-MB-435 = test system: MDA-MB-435
UACC-257 melanoma = test system: UACC-257 melanoma
U251 CNS = test system: U251 CNS
CCRF-CEM leukemia = test system: CCRF-CEM leukemia
RPMI-8226 leukemia = test system: RPMI-8226 leukemia
NCI-H522 lung = test system: NCI-H522 lung
HOP-62 NSCLC = test system: HOP-62 NSCLC
TK-10 renal = test system: TK-10 renal
MDA-MB-231 breast = test system: MDA-MB-231 breast
A549 NSCLC = test system: A549 NSCLC
OVCAR-4 ovarian = test system: OVCAR-4 ovarian
K-562 leukemia = test system: K-562 leukemia
MOLT-4 leukemia = test system: MOLT-4 leukemia
EKVX NSCLC = test system: EKVX NSCLC
SK-MEL-5 melanoma = test system: SK-MEL-5 melanoma
SK-OV-3 ovarian = test system: SK-OV-3 ovarian
SW-620 colon = test system: SW-620 colon
OVCAR-8 ovarian = test system: OVCAR-8 ovarian
SK-MEL-28 melanoma = test system: SK-MEL-28 melanoma

## CCN(CC)c1ccnc(CNCCSC(c2ccccc2)(c2ccccc2)c2ccc(C)cc2)c1
T-47D breast
  GI50: 2.5 µM
  TGI: 9.04 µM
HCC-2998 colon
  GI50: 1.69 µM
  TGI: 3.07 µM
PC-3 prostate
  GI50: 2.27 µM
  TGI: 7.77 µM
SNB-75 CNS
  GI50: 2.87 µM
  TGI: 14.1 µM
NCI-H460 lung
  GI50: 1.98 µM
  TGI: 3.79 µM
COLO 205 colon
  GI50: 1.84 µM
  TGI: 3.39 µM
A498 renal
  GI50: 12.4 µM
  TGI: 27.4 µM
SNB-19 CNS
  GI50: 3.13 µM
  TGI: 12 µM
IGROV1 ovarian
  GI50: 3.21 µM
  TGI: 12.3 µM
HS 578T breast
  GI50: 2.39 µM
  TGI: 7.84 µM
KM12 colon
  GI50: 2.33 µM
  TGI: 5.79 µM
OVCAR-5 ovarian
  GI50: 2.67 µM
  TGI: 11.3 µM
RXF 393 renal
  GI50: 2.23 µM
  TGI: 7.24 µM
OVCAR-3 ovarian
  GI50: 2.21 µM
  TGI: 5.07 µM
SF-295 CNS
  GI50: 1.59 µM
  TGI: 3.01 µM
HOP-92 NSCLC
  GI50: 1.62 µM
  TGI: 5.87 µM
M14 melanoma
  GI50: 1.84 µM
  TGI: 3.68 µM
HT29 colon
  GI50: 1.91 µM
  TGI: 4.01 µM
CAKI-1 renal
  GI50: 3.11 µM
  TGI: 12.8 µM
SF-539 CNS
  GI50: 1.87 µM
  TGI: 3.52 µM
HCT-116 colon
  GI50: 1.67 µM
  TGI: 3.18 µM
UO-31 renal
  GI50: 2.66 µM
  TGI: 12.7 µM
LOX IMVI melanoma
  GI50: 1.67 µM
  TGI: 3.09 µM
HCT-15 colon
  GI50: 1.67 µM
  TGI: 3.15 µM
NCI-H226 lung
  GI50: 4.45 µM
  TGI: 20.4 µM
NCI-H23 lung
  GI50: 1.7 µM
  TGI: 3.27 µM
SN12C renal
  GI50: 2.4 µM
  TGI: 6.29 µM
SF-268 CNS
  GI50: 3.35 µM
  TGI: 13 µM
BT-549 breast
  GI50: 1.9 µM
  TGI: 5.46 µM
MDA-MB-468 breast
  GI50: 1.83 µM
  TGI: 3.85 µM
MCF7 breast
  GI50: 1.38 µM
  TGI: 2.85 µM
786-0 renal
  GI50: 1.71 µM
  TGI: 3.21 µM
ACHN renal
  GI50: 3.22 µM
  TGI: 11.7 µM
HL-60(TB) leukemia
  GI50: 2.22 µM
  TGI: 4.52 µM
MALME-3M melanoma
  GI50: 1.68 µM
  TGI: 3.13 µM
DU-145 prostate
  GI50: 2.92 µM
  TGI: 8.29 µM
UACC-62 melanoma
  GI50: 2.64 µM
  TGI: 8.33 µM
MDA-MB-435
  GI50: 2.26 µM
  TGI: 5.38 µM
UACC-257 melanoma
  GI50: 3.52 µM
  TGI: 11.8 µM
U251 CNS
  GI50: 2.14 µM
  TGI: 6.02 µM
CCRF-CEM leukemia
  GI50: 1.96 µM
  TGI: 5.19 µM
RPMI-8226 leukemia
  GI50: 2.05 µM
  TGI: 4.88 µM
NCI-H522 lung
  GI50: 2.27 µM
  TGI: 5.61 µM
HOP-62 NSCLC
  GI50: 2.29 µM
  TGI: 6.21 µM
TK-10 renal
  GI50: 4.37 µM
  TGI: 17 µM
MDA-MB-231 breast
  GI50: 1.99 µM
  TGI: 4.53 µM
A549 NSCLC
  GI50: 4.98 µM
  TGI: 20.6 µM
OVCAR-4 ovarian
  GI50: 3.7 µM
  TGI: 14.5 µM
K-562 leukemia
  GI50: 2.34 µM
  TGI: 6.15 µM
MOLT-4 leukemia
  GI50: 2.85 µM
  TGI: 7.28 µM
EKVX NSCLC
  GI50: 1.78 µM
  TGI: 3.97 µM
SK-MEL-5 melanoma
  GI50: 1.73 µM
  TGI: 3.12 µM
SK-OV-3 ovarian
  GI50: 3.31 µM
  TGI: 11.5 µM
SW-620 colon
  GI50: 2.47 µM
  TGI: 6.86 µM
OVCAR-8 ovarian
  GI50: 2.49 µM
  TGI: 6.12 µM
SK-MEL-28 melanoma
  GI50: 1.86 µM
  TGI: 4.16 µM

Source: PubChem BioAssay (NCI)
